“Also recorded” adds a separate entry of the source. Where two headings read alike, the source gives them in different places.
Tests used:
cultured nerve cells = conditions: cited from earlier work
[1] = Observation of animals for ill or adverse effects; assay type: in vivo; conditions: present experiments
[2] = tested on: SH-SP rats with MCA permanent occlusion; conditions: cited from earlier work
[3] = tested on: SH-SP rats with MCA permanent occlusion; conditions: cited from earlier work; remark: listed apart in the source
[4] = tested on: primary cultured myocardial cells; assay: Myocardial cell survival in glucose-free, serum-free medium (α-actinin immunoblotting); assay type: cell-based, rat
Protocol: We have investigated whether or not ginsenoside Rb1 could actually suppress myocardial cell death in the concentration range for increasing the expression of Bcl-xL protein. For that purpose, for example, the protective effect of ginsenoside Rb1 on myocardial cells was examined when the primary cultured myocardial cells were cultured without addition of glucose. Ginsenoside Rb1 in the concentration range from 0 to 1 ng/ml was added to myocardial cells in serum-free DMEM without containing glucose, and the myocardial cells were cultured for 4 or 5 days. Subsequently, the samples for electrophoresis were prepared, and immunoblotting (Western blotting) was performed by using anti-striated muscle specific α-actinin antibody.
We (the present inventors) investigated whether ginsenoside Rb1 could actually suppress myocardial cell death in the concentration range for increasing the expression of Bcl-xL protein or not. For that purpose, for example, the protective effect of ginsenoside Rb1 on myocardial cells was examined when the primary cultured myocardial cells were cultured without addition of glucose. Ginsenoside Rb1 in the concentration range from 0 to 1 ng/ml was added to serum-free DMEM without containing glucose, and myocardial cells were cultured for 4 or 5 days. Subsequently, the sample for electrophoresis was prepared, and immunoblotting (Western blotting) was performed by using anti-striated muscle specific α-actinin antibody. […] Statistical analyses were conducted by ANOVA+Scheffe's post hoc test.

Bcl-xL = Bcl-xL expression in primary cultured oligodendrocytes (RT-PCR, immunoblotting); assay type: cell-based, rat
Protocol: In order to investigate whether ginsenoside Rb1 enhances the expression of Bcl-xL in oligodendrocytes or not, for example, ginsenoside Rb1 at the concentrations from 1 fg/ml to 10 pg/ml was added to the primary cultured rat oligodendrocytes. After culture for 6 hours, total RNA was extracted and Bcl-xL mRNA was assayed by RT-PCR. β-actin mRNA was used as an internal standard of RT-PCR. Further, a part of oligodendrocytes was used as a sample for SDS electrophoresis after treatment with ginsenoside Rb1, and anti-apoptotic factor Bcl-xL in the culture well was examined by immunoblotting (Western blotting). Oligodendrocytes were isolated from the mixed brain cell culture by using the forebrain of newborn rats.
In order to investigate whether ginsenoside Rb1 enhances the expression of Bcl-xL in oligodendrocytes or not, for example, ginsenoside Rb1 at the concentration from 1 fg/ml to 10 pg/ml was added to the primary cultured rat oligodendrocytes. After culture for 6 hours, Total RNA was extracted and Bcl-xL mRNA was assayed by RT-PCR. β-actin mRNA was used as an internal standard of RT-PCR. Further, a part of oligodendrocytes was used as a sample for SDS electrophoresis after treating with ginsenoside Rb1, and the amount of anti-apoptotic factor Bcl-xL in the culture well was examined by immunoblotting (Western blotting). The mixed brain cell culture was initiated to isolate oligodendrocytes by using the forebrain of newborn rats.

[5] = intravenously administered small amount (prior application); cited from earlier work
[6] = tested on: gerbils with transient forebrain ischemia (hippocampal CA1 neurons); conditions: cited from earlier work
[7] = tested on: co-cultures of nerve cells (neurons) and oligodendrocytes; assay: Co-culture of nerve cells and oligodendrocytes, Western blotting of MAP2 and CNPase; assay type: cell-based, rat
From the text: As generally known, in myelinated nerve fibers within brain and nervous tissues, oligodendrocytes form myelin by ensheathing axons of neurons repeatedly. Further, in unmyelinated nerve fibers, processes of oligodendrocytes surround axons of neurons only once. In the brain and nervous tissues, nerve cells (neurons) and oligodendrocytes are at any time holding close positional relationship. The present inventors performed co-cultures of nerve cells and oligodendrocytes to investigate whether or not ginsenoside Rb1 promotes survival of both cells. For that purpose, nerve cells (neurons) were isolated from cerebral cortices of fetal rats at gestational day 17. The mixed brain cell culture was initiated to isolate oligodendrocytes by using the forebrain of newborn rats. Fifty thousands of oligodendrocytes and 500,000 nerve cells were cocultured. To this culture system was added 1 fg/ml to 10 pg/ml ginsenoside Rb1 in DMEM containing 1% fetal calf serum, and the mixed cells were cultured for 5 days. Subsequently, samples for electrophoresis were prepared and contents of the neuron-specific protein MAP2 (microtubule-associated protein 2) and the oligodendrocyte-specific protein CNPase (cyclic nucleotide […]) in the culture well were assayed by means of Western blotting. […]

ischemic brain = assay: Oral administration of ginsenoside Rb1 per se, neuroprotective action; assay type: in vivo

## CC(C)=CCC[C@](C)(O[C@@H]1O[C@H](CO[C@@H]2O[C@H](CO)[C@@H](O)[C@H](O)[C@H]2O)[C@@H](O)[C@H](O)[C@H]1O)[C@H]1CC[C@]2(C)[C@@H]1[C@H](O)C[C@@H]1[C@@]3(C)CC[C@H](O[C@@H]4O[C@H](CO)[C@@H](O)[C@H](O)[C@H]4O[C@@H]4O[C@H](CO)[C@@H](O)[C@H](O)[C@H]4O)C(C)(C)[C@@H]3CC[C@]12C [ginsenoside Rb1]
Cultured nerve cells; 1 fg/ml and 100 fg/ml (tested 1, 100 and 10^5 fg/ml)
  suppression of apoptosis-like nerve cell death and Bcl-xL protein expression in nerve cells: significant effects
Cultured nerve cells; 100 fg/ml
  formation of lipid peroxides: slight suppressive action
Cultured nerve cells; Kim et al. 1998, Liu and Zhang 1995
  concentrations reducing neurotoxicity of glutamic acid: 0.11 to 11 µg/mL
Cultured nerve cells; Tanaka et al. 1998
  concentration that may protect against apoptosis-like death: 500 µM
Cultured nerve cells; added in advance to the culture medium
  concentrations reducing necrosis of nerve cells caused by ferrous sulfate: 0.1 to 100 fg/mL
Cultured nerve cells; high concentration of ginsenoside Rb1, inventors' cell culture experiments
  nerve cell death: did not suppress
Cultured nerve cells; not treated with SNP
  metabolic activity of control cultured nerve cells: no effect
Cultured nerve cells; prior application
  concentrations enhancing expression of Bcl-xL in cultured neurons: 1˜100 fg/ml
Cultured nerve cells; sodium nitroprusside treatment (prior application)
  extracellular concentrations protecting nerve cells injured by SNP: 1 to 100 fg/mL
[1]
  ill / adverse effects on careful observation of animals: No adverse effect was detected
[2]; ginsenoside Rb1 intracerebroventricular infusion immediately after permanent MCA occlusion
  ischemia-induced place navigation disability: ameliorated
[2]; ginsenoside Rb1 repetitive or continuous intravenous 6 μg or 60 μg/day
  ischemia-induced place navigation disability: significantly ameliorated
[3]; intracerebroventricular administration after permanent MCA occlusion
  cerebral infarction (infarcted area in the cerebral cortex): significant reduction
[3]; intravenous 6 or 60 μg/day
  secondary lesion (degeneration) of the thalamus: significantly inhibits
[3]; intravenous ginsenoside Rb1 (prior applications)
  mean ratio of cerebrocortical infarction compared with saline group: ≤ 50%
[3]; intravenous infusion for 28 days
  cerebral vessels destroyed after MCA permanent occlusion: regenerated and reconstructed
[3]; repetitive or continuous intravenous 6 μg or 60 μg/day
  cerebral infarct area relative to non-administered group: about ¼
[3]; repetitive or continuous intravenous 6 or 60 μg/day for 28 days after MCA permanent occlusion (prior applications)
  volume/size of cerebral infarct lesion relative to saline (non-administered) group: about ¼
[3]; repetitive or continuous intravenous low doses after permanent MCA occlusion
  reduction of the volume of the cerebral infarct lesions vs control group: ~75%
[4]; 0.01 fg/ml, n=3
  protective effect on myocardial cells: significant effects are not noted
[4]; 1 fg/ml to 10^4 fg/ml, glucose-free serum-free medium, 4-5 days
  striated muscle-specific α-actinin by immunoblotting (myocardial cell survival): significantly detected
[4]; FIG. 26
  concentrations promoting survival of myocardial cells: 1-10^4 fg/ml
Bcl-xL; 100 fg/ml, 6 hours, RT-PCR
  expression of Bcl-xL mRNA in oligodendrocytes: obviously enhanced
Bcl-xL; FIG. 23
  concentrations increasing Bcl-xL protein expression in oligodendrocytes: 1 to 100 fg/mL
Bcl-xL; immunoblotting after ginsenoside Rb1 addition
  Bcl-xL protein in oligodendrocytes: increased
[5]
  transfer into the brain and nervous systems: transferred quickly
[6]; intracerebroventricular infusion immediately after 3 or 3.5 minute occlusion
  delayed neuronal death and learning disability: suppressed
[6]; intraperitoneal 10 or 20 mg/kg once a day for one week in advance of 5-minute occlusion
  delayed neuronal death and learning disability: significantly prevent
[6]; intraperitoneal 10 or 20 mg/kg/day before cerebral ischemia
  nerve cells in the hippocampal CA1 area rescued: approximately 30%
[6]; intraperitoneal immediately after 3- or 5-minute occlusion of common carotid arteries
  effect on delayed neuronal death: no effect
[7]; 1 fg/ml to 100 fg/ml, 5 days, vs non-added and 10^4 fg/ml groups
  band of MAP2 and band of CNPase (survival of nerve cells and oligodendrocytes): obviously intense
[7]; FIG. 22
  concentrations that made intense the MAP2 and CNPase bands: 1 to 100 fg/mL
Ischemic brain
  neuroprotective action / protective action on the ischemic brain: did not show protective effects; also recorded: did not exhibit neuroprotective action; also recorded: did not exhibit any protective action

Source: patent US7235267B1, “Brain cell or nerve cell-protecting agents comprising medicinal ginseng” (priority 1999, dated 2007)
